The IC50 is the concentration that gives 50% inhibition. Low readings indicate higher potency, high ones lower potency. By EC50 is commonly meant the concentration at which the effect is half-maximal. Lower therefore signals greater potency.

These results are taken from ChEMBL document CHEMBL1153468, “Discovery of a novel protein kinase B inhibitor by structure-based virtual screening” (Bioorg Med Chem Lett, 2009).

Experiment [1] has as its target RAC-gamma serine/threonine-protein kinase (Homo sapiens, UniProt Q9Y243). Kind of experiment: Inhibition of AKT3 by FRET based assay.
Another experiment concerns MDA-MB-468. Kind of experiment: Cytotoxicity against human MDA-MB-468 cells with PTEN mutation and EGFR amplification after 12 hrs by MTT assay. In kind it is functional, cell-based. As to conditions: MDA-MB-468, 12 h. (In general: Tetrazolium assays rely on reduction of a dye to a coloured formazan, in cell work by metabolically active cells.)
The subject of the next experiment is MDA-MB-453. The experiment is described as follows: Cytotoxicity against human MDA-MB-453 cells with PIK3CA mutation and HER2 amplification after 12 hrs by MTT assay. It counts as functional, cell-based. To be noted: MDA-MB-453, 12 h.
Experiment [2] concerns the target T1, RAC-beta serine/threonine-protein kinase (Homo sapiens, UniProt P31751). The experiment is described as follows: Inhibition of AKT2 by FRET based assay.
The target in experiment [3] is RAC-alpha serine/threonine-protein kinase (Homo sapiens, UniProt P31749). Kind of experiment: Inhibition of AKT1 by FRET based assay.
The target in experiment [4] is T1, RAC-beta serine/threonine-protein kinase. The experiment is described as follows: Inhibition of AKT2 at 50 uM by FRET based assay.
The target is the same in experiment [5]. The experiment is described as follows: Inhibition of AKT2 at 25 uM by FRET based assay.

Activity calls are given as the source filed them. The calls are words filed in the database; no cut-off is given here.

T1 sequence (P31751 whole entry): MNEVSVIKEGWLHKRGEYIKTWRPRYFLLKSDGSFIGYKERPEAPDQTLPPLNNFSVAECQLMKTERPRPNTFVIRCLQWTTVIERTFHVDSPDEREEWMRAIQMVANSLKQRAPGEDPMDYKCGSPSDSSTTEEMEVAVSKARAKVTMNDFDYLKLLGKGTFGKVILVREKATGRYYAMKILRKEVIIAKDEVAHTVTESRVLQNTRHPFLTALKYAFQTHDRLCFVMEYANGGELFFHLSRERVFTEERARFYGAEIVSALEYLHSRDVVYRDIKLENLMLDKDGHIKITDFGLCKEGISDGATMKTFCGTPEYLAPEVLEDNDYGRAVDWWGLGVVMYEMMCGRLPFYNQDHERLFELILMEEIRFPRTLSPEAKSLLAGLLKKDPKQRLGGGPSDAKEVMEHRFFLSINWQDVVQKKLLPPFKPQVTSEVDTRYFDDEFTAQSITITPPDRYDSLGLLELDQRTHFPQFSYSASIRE
Chain of RAC-gamma serine/threonine-protein kinase (Q9Y243 whole entry): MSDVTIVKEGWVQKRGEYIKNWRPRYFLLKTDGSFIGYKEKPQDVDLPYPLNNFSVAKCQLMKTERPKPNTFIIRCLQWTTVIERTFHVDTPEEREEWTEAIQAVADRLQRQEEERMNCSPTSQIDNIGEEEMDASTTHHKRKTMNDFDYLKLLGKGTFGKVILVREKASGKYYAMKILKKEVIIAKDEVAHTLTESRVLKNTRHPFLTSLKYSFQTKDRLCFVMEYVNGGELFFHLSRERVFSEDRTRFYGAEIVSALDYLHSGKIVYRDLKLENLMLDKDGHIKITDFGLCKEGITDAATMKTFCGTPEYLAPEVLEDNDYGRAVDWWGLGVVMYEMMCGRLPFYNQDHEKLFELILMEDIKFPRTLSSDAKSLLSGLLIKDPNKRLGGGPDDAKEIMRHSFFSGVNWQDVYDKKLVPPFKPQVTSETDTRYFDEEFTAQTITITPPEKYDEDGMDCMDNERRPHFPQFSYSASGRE
Chain of RAC-alpha serine/threonine-protein kinase (P31749 whole entry): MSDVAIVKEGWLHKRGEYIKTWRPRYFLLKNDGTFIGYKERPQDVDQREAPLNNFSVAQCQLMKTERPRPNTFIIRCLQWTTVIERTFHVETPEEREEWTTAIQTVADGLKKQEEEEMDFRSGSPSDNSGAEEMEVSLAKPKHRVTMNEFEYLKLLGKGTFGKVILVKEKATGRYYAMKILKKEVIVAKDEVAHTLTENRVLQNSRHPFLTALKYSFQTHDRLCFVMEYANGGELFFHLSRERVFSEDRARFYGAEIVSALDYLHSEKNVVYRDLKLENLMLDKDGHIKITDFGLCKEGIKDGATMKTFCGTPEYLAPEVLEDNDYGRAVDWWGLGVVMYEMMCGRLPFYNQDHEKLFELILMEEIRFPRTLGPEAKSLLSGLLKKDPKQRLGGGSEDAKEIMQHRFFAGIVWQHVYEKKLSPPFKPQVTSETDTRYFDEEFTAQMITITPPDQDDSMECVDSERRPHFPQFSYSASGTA

`O=C1COc2ccc(-c3cc(-c4ccccc4)cc(-c4ccc5oc(=O)[nH]c5c4)n3)cc2N1`: the IC50 in experiment [1] amounted to 4 µM; in experiment [2], 1.5 µM; in experiment [3] it was 2.6 µM. The figures for the EC50 with MDA-MB-468 and in the experiment on MDA-MB-453 were 3.8 µM and 10 µM, respectively.
Consider `O=S(=O)(NCCNC/C=C/c1ccc(Br)cc1)c1cccc2cnccc12`, for which the outcome in experiment [4] and in experiment [5] was inactive.
For `Clc1ccc(C2(c3ccc(-c4cn[nH]c4)cc3)CCNCC2)cc1`, the result in experiment [4] and in experiment [5] was inactive.
